Columns and labels:
Type in all cases: cell-based, human
[1] = test system: micronuclei; test: micronuclei frequency, HeLa cells; conditions: HeLa RIF1-L vs RIF1-S or RIF1-L-APKF; HU 4 mM 24 h
Procedure: For proximity ligation assays and immunofluorescence signal intensity measurements, when comparing between two samples, statistical significance of differences was calculated by Mann-Whitney test for non-parametric distributions using GraphPad Prism software (v.9). When comparing among three or more samples, p values were calculated by Kruskal-Wallis test for non-parametric distributions with Dunn’s multiple comparisons using GraphPad Prism software (v.9). For RIF1 foci formation analysis (Fig. 6B), p values were calculated by two-tailed Student’s t test. For nuclear BRCA1 intensity fold change analyses (Fig. 6C, D), p values were calculated by two-tailed one-sample t test using GraphPad Prism software (v.9). For RAD51 foci formation analyses (Fig. 7B, E and Supplementary Fig. 7B), p values were calculated by chi-square test. For HR Reporter assay analysis (Fig. 7G and Supplementary Fig. 7L), p values were calculated by two-tailed paired Student’s t test. For micronuclei frequency analysis (Fig. 7H), p values were calculated by one-tailed paired Student’s t test. All Student’s t tests were performed with Excel T.TEST function. Chi-square tests were performed with the online Chi-square test calculator at https://www.socscistatistics.com/tests/chisquare2/default2.aspx. Sample number n for all box-and-whisker plots and dot plots are listed in Supplementary Data 1.

[2] = test system: HCT116 cells; test: colony formation (clonogenic survival) assay, HCT116 cells
Procedure: For HCT116-derived cells, cells were plated in 6-well plates at 250 cells/well, in triplicate for each drug concentration. Cells were incubated with drugs for 24 h, after which drug-containing medium was replaced with drug-free medium. Seven days later colony counting was performed using a Nikon Eclipse TS100 microscope. For the IR sensitivity test, cells were plated following the same procedure, then irradiated at desired doses and incubated for 7 days before colony counting. Clusters with more than 20 cells were counted as colonies. Mean and standard error of each triplicate was calculated.

[3] = test system: RIF1-L interaction with BRCA1; test: RIF1-BRCA1 / RIF1-BRCA1-BRCT co-immunoprecipitation, Flp-In T-REx 293 cells; conditions: HU 4 mM, 4 h or 24 h; Fig. 5H, I
Procedure: For mCherry IP and GFP IP, cells were washed once with ice-cold TBS, lysed with IP lysis buffer (1X TBS, 0.5 mM EDTA, 1% CHAPS, 1 mM PMSF, 3 mM MgCl2, 1X Halt Protease & Phosphatase inhibitor), and incubated with 1 µl/ml Benzonase (Sigma-Aldrich, E1014) for 45 min at 4 °C with rotation. RFP-Trap or GFP-Trap Magnetic Agarose beads (Chromotek) were washed three times in IP buffer 1 (1X TBS, 0.5 mM EDTA) and then incubated with cell lysates for 1 h at 4 °C with rotation. Beads were next washed three times with IP washing buffer (1X TBS, 0.5 mM EDTA, 0.1% CHAPS, 1 mM PMSF, 250 mM NaCl, 1X Halt Protease & Phosphatase inhibitor), after which bead-bound proteins (IP fractions) were eluted by heating at 95 °C for 7 min. IP fractions were analysed by western blotting.
For FLAG IP, cell lysates were prepared in the same way. Dynabeads magnetic beads (Invitrogen) were incubated with […] anti-FLAG antibody (Sigma-Aldrich, F1804) in PBS supplemented with 0.02% Tween-20) for 10 min at RT with rotation. The antibody-bound beads were incubated with cell lysates for 1 h at 4 °C with rotation. Beads were then washed three times with PBS, after which bead-bound proteins (IP fractions) were eluted by heating at 95 °C for 7 min. IP fractions were analysed by western blotting.

SMILES: NC(=O)NO [HU, hydroxyurea]
- frequency of micronuclei following HU [1]: RIF1-L cells exhibited a lower frequency of micronuclei following HU treatment than RIF1-S or RIF1-L-APKF cells
- colony survival, RIF1-L cells ([2]; HCT116 expressing only RIF1-L, versus RIF1-WT): RIF1-L conferred resistance comparable to RIF1-WT
- colony survival, RIF1-S cells ([2]; HCT116 expressing only RIF1-S, versus RIF1-KO): exhibited hypersensitivity to these drugs similar to RIF1-KO cells
- RIF1-L interaction with BRCA1 [3]: increased RIF1-L interaction with BRCA1

— article PMC12214830, “The human RIF1-Long isoform interacts with BRCA1 to promote recombinational fork repair under DNA replication stress” (Nature Communications, 2025)
